Read-outs that look alike come from different tables or passages of the source.
Legend:
[1] = system: surface expressed viral antigens in FIPV infected monocytes; assay: Internalization inhibition assay of surface expressed viral antigens (antigen-antibody complexes); assay type: cell-based, feline; conditions: 30 min pre-incubation, 30 min with antibodies, each inhibitor at its working concentration
feline monocytes [2] = assay: Internalization assay of control ligands (beads, transferrin or albumin) in monocytes; assay type: cell-based; conditions: inhibitor at working concentration
Procedure: To test the effectiveness of all reagents, a suitable control was used in each experiment. Monocytes seeded on glass coverslips were pre-incubated for 30 minutes at 37° C. with 5% CO2 in the presence of one of the inhibitors. After treatment, the cells were incubated with biotinylated transferrin (Sigma-Aldrich GmbH) or fluorescent 1 μm polystyrene microspheres, FluoSpheres (Molecular Probes-Invitrogen), in presence of the inhibitor. Then, cells were fixed with 1% formaldehyde and permeabilized with 0.1% Triton X-100. The biotinylated transferrin was visualized by incubating the cells with streptavidin-FITC for 1 hour at 37° C. and cells incubated with fluorescent beads were incubated with phalloidin-Texas Red (Molecular Probes-Invitrogen) for 1 hour at 37° C. to visualize the lamellipodia. The glass coverslips were mounted on microscope slides using glycerin-DABCO and analyzed by confocal microscopy. […] Fluorescent beads were considered internalized when they were found inside the cortical actin labeling.

FIPV 1146 (CrFK cells) = assay: Plaque reduction assay, entry of FIPV 1146 in CrFK cells; assay type: cell-based, feline infectious peritonitis virus
FECV 1863 (CrFK cells) = assay: Plaque reduction assay, entry of FECV 1863 in CrFK cells; assay type: cell-based, feline enteric coronavirus
FIPV Black (fcwf cells) = assay: Plaque reduction assay, entry of FIPV Black in fcwf cells; assay type: cell-based, feline infectious peritonitis virus; conditions: FIPV strain Black
[3] = system: Porcine respiratory coronavirus (PRCV) in ST cells; assay: Plaque reduction assay, entry of porcine respiratory coronavirus in ST cells; assay type: cell-based
PRRSV in MARC cells = assay: Plaque reduction assay, entry of PRRSV in MARC cells; assay type: cell-based, Porcine reproductive and respiratory syndrome virus
[4] = system: PRRSV in alveolar macrophage; assay type: cell-based, Porcine reproductive and respiratory syndrome virus
FeHV (CrFK cells) = assay: Plaque reduction assay, entry of feline herpesvirus in CrFK cells; assay type: cell-based
HSV1 (VERO cells) = assay: Plaque reduction assay, entry of HSV1 in VERO cells; assay type: cell-based, human herpes simplex virus 1
EHV (EEL cells) = assay: Plaque reduction assay, entry of equine herpesvirus in EEL cells; assay type: cell-based
[5] = system: swine influenzavirus in MDCK cells; assay type: cell-based
hepatitis C virus (HCV) = assay: Single infected cell reduction assay, entry of HCV in Huh7.5 hepatoma cells; assay type: cell-based, human hepatitis C virus; conditions: 25 μM; Huh7.5 cells
Procedure: The single infected cell reduction assay was used to determine the antiviral potency of to ML-7 on the entry of hepatitis C virus (HCV). • 1. Day 1
Huh7.5 hepatoma cells were seeded in a 96-well plate at 10000 cells/well in 100 μl medium containing 0, 2.5 or 25 μM of ML-7. • 2. Day 2
Virus was diluted in medium containing the different concentrations of the inhibitor to reach an end concentration of 2,22.10^6 IU/ml. 100 μl of this mixture was added to the wells and the plate was further incubated at 37° C. • 3. Day 6
The cells were fixed and stained for NS5A (a HCV protein). Then the amount of HCV-positive clusters per well was counted. A cluster is defined as a group of positive cells that is separated from another cluster by at least 1 non-infected cell.

[6] = system: PrV infected porcine monocytes; assay: Antibody-induced internalization of PrV viral proteins in porcine monocytes; assay type: cell-based; conditions: 10 μM
HIV-1 NL4.3-eGFP = assay type: cell-based, Human Immunodeficiency Virus 1
Procedure: In this experiment the Human Immunodeficiency Virus 1 (HIV-1) strain HIV-1 NL4.3-eGFP which is a lab strain with an eGFP reporter, was used to infect the human T-cell lymphoblatic lymphoma cell line SupT1. The percentage of eGFP positive cells measured at different time point was used as endpoint read out SupT1. ML-7 inhibitor was used at three different concentration: 0 (DMSO), 2,5 and 25 μM.
SupT1 cells were at a concentration of 20000 cell/well in 200 μl of iMDM medium supplemented with 10% FCS, 1% penicillin/streptomycin and 1% L-glutamine, and were centrifuged at 300 g for 5 min at 4° C. Supernatant was removed and the cells were treated for 30 min with 100 μl of 0 (DMSO at 1/200 dilution in culture medium), 5 and 50 μM ML-7 inhibitor prepared in culture medium at 1/2000 and 1/200 dilution respectively. Meanwhile, HIV-1 NL4.3-eGFP virus was diluted in 10 fold dilution series in a separate plate (starting from 1/5 of stock, put on first well). 100 μl of each virus at every dilution was transferred to the corresponding well of the culture plate treated with the inhibitor. Four hours later approximately 100 μl was transferred to an
Cells were centrifuged at 300 g for 5 min at 4° C. and approximately 100 μl was collected then stored at −80° C. for p24 measurement. Then 100 μl of cells infected with HIV1-NL4.3-eGFP virus was collected for the determination of the percentage of eGFP positive cells by FACS. Cells were resuspended in 200 μl of medium containing the adequate ML-7 inhibitor concentration. • 3. Day 7
Cells were treated in the same way as in day 3
During the course of the experiment cells were monitored carefully by microscopy to check for signs of infection such as: • eGFP expression • Syncytia formation • Cell death Results

protein kinase A = conditions: 50 and 100 μM; cited from earlier work
protein kinase C = conditions: 50 and 100 μM; cited from earlier work
feline monocytes [7] = assay: Internalization assay of control ligands (beads, transferrin or albumin) in monocytes; assay type: cell-based; conditions: 50 μg/ml genistein
[8] = feline coronaviruses, FIG. 4, 50 and 100 μM
[9] = feline coronaviruses, FIG. 4, higher concentrations
[10] = Day 3, 2.5 μM, virus dilution 10X
[11] = Day 3, 2.5 μM, virus dilution 100X
[12] = Day 3, 2.5 μM, virus dilution 1000X
[13] = Day 3, 25 μM, virus dilution 10X
[14] = Day 3, 25 μM, virus dilution 100X
[15] = Day 3, 25 μM, virus dilution 1000X
[16] = Day 7, 2.5 μM, virus dilution 10X
[17] = Day 7, 2.5 μM, virus dilution 100X
[18] = Day 7, 2.5 μM, virus dilution 1000X, at or below detection limit
[19] = Day 7, 25 μM, virus dilution 10X
[20] = Day 7, 25 μM, virus dilution 100X
[21] = Day 7, 25 μM, virus dilution 1000X, at or below detection limit

## O=S(=O)(c1cccc2c(I)cccc12)N1CCCNCC1 [ML-7]
[1]
  internalization of viral antigens: 12±21 % of untreated control
Feline monocytes [2]
  internalization of the control ligand beads: 11±5 % of untreated control
FIPV 1146 (CrFK cells); FIPV on CrFK cells, 3,13 μM
  reduction of entry, % of the control: 88 % of the control
FIPV 1146 (CrFK cells); [8]
  inhibitory effect on entry at the highest concentrations: inhibitory effect increased rapidly
FIPV 1146 (CrFK cells); [9]
  inhibitory effect on entry at higher concentrations: inhibitory effect seemed to be lost again
FECV 1863 (CrFK cells); FECV on CrFK cells, 1,56 μM
  reduction of entry, % of the control: 73%
FECV 1863 (CrFK cells); [8]
  inhibitory effect on entry at the highest concentrations: inhibitory effect increased rapidly
FECV 1863 (CrFK cells); [9]
  inhibitory effect on entry at higher concentrations: inhibitory effect seemed to be lost again
FIPV Black (fcwf cells)
  effect on the entry process: little effect
[3]; 50 μM
  number of plaques, % of the untreated control: about 40 % of the untreated control
[3]; 1,56 μM
  entry (plaque formation), % of the untreated control: 68 % of the untreated control
[3]; higher concentrations (up to 6 μM)
  inhibitory effect at higher concentrations: inhibitory effect is lost again
PRRSV in MARC cells
  effect on entry: activating effect instead of an inhibiting effect
[4]; 0,78 μM
  number of plaques, % of the control: 68 % of the control
[4]; higher concentrations
  further reduction at the higher concentrations: no further reduction
FeHV (CrFK cells); 100 μM
  additional effect at high concentration: additional inhibitory effect
FeHV (CrFK cells); 1,56 μM
  plaques, % of the untreated control: 79 % of the untreated control
HSV1 (VERO cells); 1,56 μM
  plaques, % of the untreated control: 81 % of the untreated control
HSV1 (VERO cells); 25 and 100 μM
  additional effect at high concentration: additional effect
EHV (EEL cells); 100 μM
  additional effect at high concentration: additional inhibitory effect
EHV (EEL cells); 1,56 μM
  plaques, % of the untreated control: 86 % of the untreated control
[5]; 3,13 μM
  number of plaques, % of the control: 76 % of the control
[5]; higher concentrations
  further reduction at the higher concentrations: no further reduction
Hepatitis C virus (HCV)
  amount of infected clusters, % of the untreated control: 31 % of the untreated control
[6]
  antibody-induced internalization of PrV viral proteins: can be inhibited
HIV-1 NL4.3-eGFP; 25 μM
  protection from virus mediated cell death: protected
HIV-1 NL4.3-eGFP; [10]
  Percentage of eGFP cells: 2.98%
  eGFP cells relative to 0 μM ML-7 (100%): (80%)
HIV-1 NL4.3-eGFP; [11]
  Percentage of eGFP cells: 0.18%
  eGFP cells relative to 0 μM ML-7 (100%): (46%)
HIV-1 NL4.3-eGFP; [12]
  Percentage of eGFP cells: 0.04%
  eGFP cells relative to 0 μM ML-7 (100%): (36%)
HIV-1 NL4.3-eGFP; [13]
  Percentage of eGFP cells: 1.52%
  eGFP cells relative to 0 μM ML-7 (100%): (41%)
HIV-1 NL4.3-eGFP; [14]
  Percentage of eGFP cells: 0.19%
  eGFP cells relative to 0 μM ML-7 (100%): (49%)
HIV-1 NL4.3-eGFP; [15]
  Percentage of eGFP cells: 0.06%
  eGFP cells relative to 0 μM ML-7 (100%): (54%)
HIV-1 NL4.3-eGFP; [16]
  Percentage of eGFP cells: 35.8%
  eGFP cells relative to 0 μM ML-7 (100%): (92%)
HIV-1 NL4.3-eGFP; [17]
  Percentage of eGFP cells: 18.64%
  eGFP cells relative to 0 μM ML-7 (100%): (44%)
HIV-1 NL4.3-eGFP; [18]
  Percentage of eGFP cells: 0.95%
  eGFP cells relative to 0 μM ML-7 (100%): (3160%)°
HIV-1 NL4.3-eGFP; [19]
  Percentage of eGFP cells: 1.13%
  eGFP cells relative to 0 μM ML-7 (100%): (3%)
HIV-1 NL4.3-eGFP; [20]
  Percentage of eGFP cells: 0.14%
  eGFP cells relative to 0 μM ML-7 (100%): (0.3%)
HIV-1 NL4.3-eGFP; [21]
  Percentage of eGFP cells: 0.06%
  eGFP cells relative to 0 μM ML-7 (100%): (200%)
HIV-1 NL4.3-eGFP; SupT1 cells
  inhibition of HIV-1 NL4.3-eGFP infection: strong inhibition
  toxic effect on cells: No toxic effect
HIV-1 NL4.3-eGFP; high concentration, data not shown
  virus induced syncytia: inhibited completely
HIV-1 NL4.3-eGFP; intermediate inhibitor concentration
  protection from virus mediated cell death: mild
Protein kinase A
  block of protein kinase A: can also block
Protein kinase C
  block of protein kinase C: can also block

## O=c1c(-c2ccc(O)cc2)coc2cc(O)cc(O)c12 [genistein]
[1]
  internalization of viral antigens: 81±4 % of untreated control
Feline monocytes [7]
  internalization of the control ligand albumin: 3±5 % of the untreated control

— patent publication US8293464B2, “Methods for reducing the internalization of viruses and identification of compounds effective thereof” (Universiteit Gent, priority 2008, dated 2012)
